Results on 2 compounds are retold here after ChEMBL document CHEMBL5316338, “Discovery of Novel PTP1B Inhibitors with Once-Weekly Therapeutic Potential for Type 2 Diabetes: Design, Synthesis, and In Vitro and In Vivo Investigations of BimBH3 Peptide Analogues” (J Med Chem, 2023).

Active and inactive are the calls of the source. Square brackets hold non-standard residues; d marks the D form. Peptide text beside a SMILES is read from it. * marks the point of attachment. ξ: configuration not given here. C18 diacid = O=C(O)CCCCCCCCCCCCCCCCC(=O)*; Myristoyl = CCCCCCCCCCCCCC(=O)*; ξR = N=C(N)NCCCC(N)C(=O)O

The target in data set [1] is T1, Tyrosine-protein phosphatase non-receptor type 1 (Homo sapiens, UniProt P18031).
T1 sequence (P18031 whole entry): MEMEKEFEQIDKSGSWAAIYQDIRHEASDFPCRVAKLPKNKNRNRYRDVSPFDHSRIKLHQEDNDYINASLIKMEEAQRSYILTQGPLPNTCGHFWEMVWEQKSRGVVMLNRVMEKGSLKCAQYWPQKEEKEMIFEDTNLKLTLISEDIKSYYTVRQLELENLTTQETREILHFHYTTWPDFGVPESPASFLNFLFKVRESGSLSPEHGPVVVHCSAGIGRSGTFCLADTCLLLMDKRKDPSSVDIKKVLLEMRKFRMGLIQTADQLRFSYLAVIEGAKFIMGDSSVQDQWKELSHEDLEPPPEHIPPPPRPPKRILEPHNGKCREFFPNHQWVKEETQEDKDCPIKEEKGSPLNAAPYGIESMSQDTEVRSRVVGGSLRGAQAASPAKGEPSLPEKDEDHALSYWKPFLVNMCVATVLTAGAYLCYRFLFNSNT
The data set is described as follows: Inhibition of N-terminal His tagged recombinant human PTP1B expressed in Escherichia coli using pNPP as substrate assessed as substrate hydrolysis.

Data set [2] concerns the target T2, Tyrosine-protein phosphatase non-receptor type 2 (Homo sapiens, UniProt P17706).
T2 sequence (P17706 whole entry): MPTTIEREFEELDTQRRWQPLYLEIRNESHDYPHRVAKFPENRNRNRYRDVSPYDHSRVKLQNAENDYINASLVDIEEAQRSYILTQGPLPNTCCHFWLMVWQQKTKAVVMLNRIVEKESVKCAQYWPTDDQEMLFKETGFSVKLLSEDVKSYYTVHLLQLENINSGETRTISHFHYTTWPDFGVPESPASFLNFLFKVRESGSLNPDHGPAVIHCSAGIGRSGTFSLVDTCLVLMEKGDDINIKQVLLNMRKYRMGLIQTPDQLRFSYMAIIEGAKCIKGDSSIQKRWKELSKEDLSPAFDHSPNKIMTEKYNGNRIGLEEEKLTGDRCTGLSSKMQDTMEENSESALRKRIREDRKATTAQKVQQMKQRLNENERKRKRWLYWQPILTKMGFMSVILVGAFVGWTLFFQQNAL
The data set is described as follows: Inhibition of recombinant human TC-PTP (1 to 314 residues) expressed in baculovirus infected insect cells using pNPP as substrate assessed as substrate hydrolysis. The arrangement: species or system Insect cell.

For the next data set, the system named is Proteinase K. The experiment in a line: Stability of compound assessed as Proteinase K (unknown origin) mediated compound degradation by measuring half-life by HPLC analysis. Type of data set: ADME.
The next data set deals with T3, carboxypeptidase A (Homo sapiens, UniProt P15085).
T3 sequence (P15085 whole entry): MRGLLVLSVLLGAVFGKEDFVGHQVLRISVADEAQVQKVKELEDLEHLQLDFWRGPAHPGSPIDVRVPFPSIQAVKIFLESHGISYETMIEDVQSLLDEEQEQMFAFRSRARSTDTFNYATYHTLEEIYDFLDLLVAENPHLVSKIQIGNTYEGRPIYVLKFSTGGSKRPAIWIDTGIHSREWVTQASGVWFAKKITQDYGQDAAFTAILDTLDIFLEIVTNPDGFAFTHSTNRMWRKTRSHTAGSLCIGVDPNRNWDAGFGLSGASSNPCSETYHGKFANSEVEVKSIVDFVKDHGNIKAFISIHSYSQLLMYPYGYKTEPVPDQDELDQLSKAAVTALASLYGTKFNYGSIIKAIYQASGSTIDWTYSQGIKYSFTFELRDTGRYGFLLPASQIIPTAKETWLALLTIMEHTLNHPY
The data set is described as follows: Stability of compound assessed as carboxypeptidase A (unknown origin) mediated compound degradation by measuring half-life by RP-HPLC analysis. Type of data set: ADME.

The next data set deals with Chymotrypsin (Homo sapiens, UniProt Q99895+P17538+P40313+Q6GPI1). The experiment in a line: Stability of compound assessed as chymotrypsin (unknown origin) mediated compound degradation by measuring fold change of half-life by RP-HPLC analysis relative to BimBH312-mer peptide. Type of data set: ADME, protein assay.
Data set [3] is described as follows: Toxicity in C57BL/Ks db/db mouse assessed as signs of discomfort at 1 uM/kg, sc administered for 2 weeks. Type of data set: organism-based. The note with it: in vivo, 336 h.
Data set [4] in a line: Toxicity in C57BL/Ks db/db mouse assessed as signs of distress at 1 uM/kg, sc administered for 2 weeks. Type of data set: organism-based. The conditions noted are these: in vivo, 336 h.
Data set [5] concerns Mus musculus. The data set is described as follows: Antidiabetic activity against C57BL/Ks db/db mouse assessed as redcution in fasting blood glucose level at 1 umol/kg, sc administered once a week and measured on day 24 by glucometer analysis (reference value: 30.2 +/- 3.2 […]). The conditions noted are these: dose 1 µmol/kg, time 24 day. Type of data set: functional.
Data set [6] concerns Mus musculus. The data set is described as follows: Antidiabetic activity against C57BL/Ks db/db mouse assessed as redcution in fasting blood glucose level at 1 umol/kg, sc administered once a week and measured on day 26 by glucometer analysis (reference value: 31.4 +/- 2.2 […]). The conditions noted are these: dose 1 µmol/kg, time 26 day. Type of data set: functional.
In data set [7] the test system is Mus musculus. The experiment in a line: Antidiabetic activity against over-night fasted C57BL/ks db/db mouse assessed as suppression of increased blood glucose concentration at 1 uM/kg, sc pretreated with compound for 4 weeks followed by oral glucose stimulation and measured upto 120 mins by oral glucose tolerance test. Type of data set: functional, organism-based. The conditions noted are these: time 40440.0 min.

In data set [8] the test system is Mus musculus. The data set is described as follows: Antidiabetic activity against sc dosed C57BL/Ks db/db mouse assessed as reduction in C-peptide level at 1 umol/kg by ELISA analysis. The note with it: dose 1.0 µmol/kg. Type of data set: functional, organism-based. (ELISA stands for enzyme-linked immunosorbent assay.)
Data set [9] relates to Mus musculus. The experiment in a line: Antidiabetic activity against sc dosed C57BL/Ks db/db mouse assessed as reduction in glucagon level at 1 umol/kg by ELISA analysis. Type of data set: functional, organism-based. The note with it: dose 1.0 µmol/kg.
Data set [10] has as its system Mus musculus. The data set is described as follows: Antidiabetic activity against C57BL/Ks db/db mouse assessed as reduction in fasting blood glucose level at 1 uM/kg, sc administered once daily and measured on day 8 by glucometer analysis. Type of data set: functional, organism-based. The conditions noted are these: time 8.0 day.
Data set [11] has as its system Mus musculus. The experiment in a line: Antidiabetic activity against C57BL/Ks db/db mouse assessed as reduction in fasting blood glucose level at 1 uM/kg, sc administered once every 3 days for 2 weeks by glucometer analysis. Type of data set: functional, organism-based.

What is called IC50 is the concentration that inhibits the measured activity by half. The half-life is the time needed for the level to fall by half in the phase considered. As to `CCCCCCCCCCCCCC(=O)N[C@H](C(=O)N[C@@H](C)C(=O)N[C@@H](CCC(N)=O)C(=O)N[C@@H](CCC(=O)O)C(=O)N[C@@H](CC(C)C)C(=O)N[C@@H](CCCNC(=N)N)C(=O)NC(CCCNC(=N)N)C(=O)N[C@H](C(=O)NCC(=O)N[C@@H](CC(=O)O)C(=O)N[C@@H](CCC(=O)O)C(=O)N[C@@H](Cc1ccccc1)C(=O)O)[C@@H](C)CC)[C@@H](C)CC` (stereo partly specified) (Myristoyl-IAQELR[ξR]IGDEF-OH), the IC50 in [1] was 263 nM; in data set [2] it was more than 50000 nM. For the same compound, the half-life was 17.4 min with Proteinase K and 61.2 min at carboxypeptidase A. Further, the “fold change (FC)” value on Chymotrypsin came to 68.8. The Activity entry in data set [3] and in data set [4] was “Non-Toxic” each time. In addition, the results for the “Fasting blood glucose level” value with Mus musculus [5] and in the data set with Mus musculus [6] were 14.2 mmol/L and 12.9 mmol/L, respectively. Besides, the result in the data set with Mus musculus [7], in the data set with Mus musculus [8] and in the data set on Mus musculus [9] was Active.
Turning to `CC[C@H](C)[C@H](NC(=O)CCCCCCCCCCCCCCCCC(=O)O)C(=O)N[C@@H](C)C(=O)N[C@@H](CCC(N)=O)C(=O)N[C@@H](CCC(=O)O)C(=O)N[C@@H](CC(C)C)C(=O)N[C@@H](CCCNC(=N)N)C(=O)NC(CCCNC(=N)N)C(=O)N[C@H](C(=O)NCC(=O)N[C@@H](CC(=O)O)C(=O)N[C@@H](CCC(=O)O)C(=O)N[C@@H](Cc1ccccc1)C(=O)O)[C@@H](C)CC` (stereo partly specified) ({C18 diacid}-IAQELR[ξR]IGDEF-OH), the figures for the IC50 in data set [1] and in [2] were 385 nM and more than 50000 nM, respectively. Further, the figures for the half-life in the data set on Proteinase K and on carboxypeptidase A were 7.8 min and 271 min, respectively. In addition, the result in the data set with Mus musculus [10], in the data set with Mus musculus [11], in the data set with Mus musculus [7], in the data set with Mus musculus [8] and in the data set on Mus musculus [9] was Active. In addition, the “fold change (FC)” value at Chymotrypsin is 4.7. Besides, the Activity result in data set [3] and in [4] was “Non-Toxic” each time. The results for the “Fasting blood glucose level” value in the data set on Mus musculus [5] and in the data set on Mus musculus [6] were 14.3 mmol/L and 22.9 mmol/L, respectively.
